Laboratory results as given in article PMC7826790, “Glucose 6-Phosphate Dehydrogenase from Trypanosomes: Selectivity for Steroids and Chemical Validation in Bloodstream Trypanosoma brucei” (Molecules, 2021).
Where two headings read alike, the source gives them in different places.

Assays:
[1] = Cytotoxicity to murine macrophages (WST-1); format: cell-based; conditions: mouse, J774 murine macrophage cells, read-out: CC50 Murine Macrophage (Cell Line J774)
Method: (§2) Cell viability was assessed using the WST-1 reagent.
(§3) EC50 values were obtained from the corresponding concentration/response plots fitted to a sigmoidal Hill equation or extrapolated from nonlinear fitting equations.

[2] = test system: Bloodstream T. b. brucei (strain 427- cell line 514-1313); assay: Cell viability of bloodstream T. b. brucei (bioluminescent assay); format: cell-based, Trypanosoma brucei brucei; conditions: for EC50: 24 h incubation, read-out: EC50 T. brucei Bloodstream Form; for Selectivity Index (CC50 for murine macrophages/EC50 for T. brucei): DHEA: Hek293T CC50, Conessine: L6 CC50
Method: Parasite viability was performed as described in [72]. […] Thereafter, 200 µL from each well were transferred to a 96-well black plate and incubated with 20 µL of a solution containing: 1.5 mg/mL luciferin in PBS glucose 1% (w/v) and Triton X-100.

[3] = test system: T. cruzi epimastigotes (strain DM28); assay: Cell viability of T. cruzi epimastigotes (propidium iodide, flow cytometry); conditions: 72 h; for cytotoxicity at 50 µM: read-out: % Cytotoxicity (50 µM) T. Cruzi Epimastigote Form, 50 µM, 72 h
Method: T. cruzi epimastigotes (strain DM28) were grown at 28 °C in LIT medium supplemented with 10% (v/v) Fetal Bovine Serum (FBS; GIBCO®), 7.5 mM hemin and antibiotics (penicillin 10 U/mL– streptomycin 10 µg/mL). […] Thereafter, 200 µL from each well were transferred to individual cytometer tubes.
EC50 values were obtained from the corresponding concentration/response plots fitted to a sigmoidal Hill equation or extrapolated from nonlinear fitting equations. The errors were calculated using error propagations and are expressed as S.D. estimated as σ^(n−1).

T. cruzi G6PDH [4] = target: T1, T. cruzi G6PDH (Trypanosoma cruzi, UniProt Q4E0B2); assay: biochemical; format: biochemical
Method: (§1) E. coli Tuner (DE3) cells were transformed with the pET28a (+) and pHis constructs encoding for N-terminally hexa histidine-tagged TcG6PDHL and HsG6PDH, respectively, and grown overnight in LB medium with […] and […], respectively. […] Thereafter, the cultures were incubated for 20 h at 25 °C and 170 rpm. Cells were harvested by centrifugation (5000× g, 10 min, 4 °C), resuspended in buffer A (50 mM Tris, pH of 8.0, 500 mM NaCl and 5 mM MgCl2) containing a complete™ Protease Inhibitor Cocktail prepared as indicated by the provider (Sigma-Aldrich-Merck, Germany); afterwards, we added 1 mg/mL of lysozyme and incubated the cells for 1 h at 4 °C. […] Protein concentration was determined from the absorbance values at 280 nm and the corresponding theoretical absorbance coefficients.
All reactions were performed in 50 mM Tris (pH 7.5) with 5 mM MgCl2 and 250 mM NaCl in a final volume of 500 µL. […] For each enzyme, a control reaction in the presence of 1% (v/v) DMSO was run. Stock and working solutions of compounds were prepared in 100% (v/v) DMSO. […] The initial velocities were calculated from the first 45 s of the reaction and normalized to the corresponding enzyme control. All measurements were performed at least in triplicate using a Cary 50 Bio spectrophotometer (Agilent Technologies, Santa Clara, CA, USA) at RT. The initial rates were determined with the Origin Pro 8.0 software (OriginLab Corporation, Northampton, MA, USA), and the IC50 values were calculated by nonlinear regression using the GraphPad Prism 5.0 software (GraphPad Inc., San Diego, CA, USA).

human G6PDH [5] = target: T2, human G6PDH (Homo sapiens, UniProt P11413); assay: G6PDH enzymatic assay, recombinant human G6PDH (NADPH formation at 340 nm); format: biochemical, H. sapiens; conditions: for inhibition at 100 µM: read-out: % inhibition of human G6PDH; for inhibition of human G6PDH at highest concentration: 100 µM
T2 construct: hexa-histidine (His6) (N); made in house; host or cells: E. coli Tuner (DE3), pHis vector
Method: as §1, with “°C. Cells were further lysed by three cycles of sonication (45% amplitude, 2 s pulse on/off, for 1 min) using a macrotip in a Branson Digital Sonifier 450 (Marshall Scientific, Hampton, VA, USA) and debris was removed by centrifugation at 27,000× g for 45 min at 4 °C and filtrated through a 0.45 µm filter (Millipore-Merck, Darmstadt, Germany).” for “°C.”
G6PDH activity was determined at room temperature (RT) by monitoring NADPH (ε340 = 6220 M^−1 cm^−1) formation at 340 nm. All reactions were performed in 50 mM Tris (pH 7.5) with 5 mM MgCl2 and 250 mM NaCl in a final volume of 500 µL. The reactions were started by the addition of 700 µM NADP^+ and 6 mM G6P for TcG6PDH or by the addition of 250 µM NADP^+ and 1 mM G6P for the human enzyme. For each enzyme, a control reaction in the presence of 1% (v/v) DMSO was run. Stock and working solutions of compounds were prepared in 100% (v/v) DMSO. […] The initial velocities were calculated from the first 45 s of the reaction and normalized to the corresponding enzyme control. All measurements were performed at least in triplicate using a Cary 50 Bio spectrophotometer (Agilent Technologies, Santa Clara, CA, USA) at RT. The initial rates were determined with the Origin Pro 8.0 software (OriginLab Corporation, Northampton, MA, USA), and the IC50 values were calculated by nonlinear regression using the GraphPad Prism 5.0 software (GraphPad Inc., San Diego, CA, USA).

[6] = test system: Murine macrophages (cell line J774); assay: Cytotoxicity to murine macrophages (WST-1); format: cell-based; conditions: 24 h, read-out: CC50 Murine Macrophage (Cell Line J774)
Method: as §2, §3

human G6PDH [7] = target: T2, human G6PDH; parameters: method as in PMID 22506561; conditions: read-out: IC50 H. sapiens G6PDH; cited from earlier work
[8] = test system: Bloodstream T. b. brucei (strain 427- cell line 514-1313); parameters: method as in PMID 28684718; conditions: read-out: EC50 T. brucei Bloodstream Form, cited from earlier work
[9] = test system: mammalian L6 cell line from rat skeletal myoblasts; parameters: method as in PMID 28684718; conditions: printed in the macrophage column; read-out: CC50 against mammalian L6 cell line; cited from earlier work
[10] = test system: Bloodstream T. b. brucei expressing the redox biosensor hGrxroGFP2; assay: Redox reporter assay (hGrx1-roGFP2 biosensor, flow cytometry); format: cell-based, Trypanosoma brucei brucei
Method: Bloodstream T. b. brucei expressing the redox biosensor hGrxroGFP2 was grown as described elsewhere. […] Next, 50 µL from each well were transferred to a 96-well plate, containing 100 µL of sterile PBS with glucose 1% (w/v). […] GFP fluorescence (filter λem = 530/40 nm) was only analyzed for viable cells (PI negative). The data were processed and analyzed with the C6Accuri software. Samples were analyzed in triplicate and the error is expressed as S.D.

L. mexicana G6PDH = conditions: cited from earlier work
Hek293T = conditions: read-out: CC50 against Hek293T; printed in the macrophage column; cited from earlier work
T. cruzi G6PDH [11] = target: T1, T. cruzi G6PDH; conditions: read-out: IC50 T. cruzi G6PDH, cited from earlier work
[12] = test system: G6PDH in T. cruzi strain CL Brenner epimastigotes; conditions: 24 h
[13] = recombinant human G6PDH, 250 µM NADP+, 1 mM G6P, RT, read-out: IC50 H. sapiens G6PDH

T2 sequence (P11413 whole entry): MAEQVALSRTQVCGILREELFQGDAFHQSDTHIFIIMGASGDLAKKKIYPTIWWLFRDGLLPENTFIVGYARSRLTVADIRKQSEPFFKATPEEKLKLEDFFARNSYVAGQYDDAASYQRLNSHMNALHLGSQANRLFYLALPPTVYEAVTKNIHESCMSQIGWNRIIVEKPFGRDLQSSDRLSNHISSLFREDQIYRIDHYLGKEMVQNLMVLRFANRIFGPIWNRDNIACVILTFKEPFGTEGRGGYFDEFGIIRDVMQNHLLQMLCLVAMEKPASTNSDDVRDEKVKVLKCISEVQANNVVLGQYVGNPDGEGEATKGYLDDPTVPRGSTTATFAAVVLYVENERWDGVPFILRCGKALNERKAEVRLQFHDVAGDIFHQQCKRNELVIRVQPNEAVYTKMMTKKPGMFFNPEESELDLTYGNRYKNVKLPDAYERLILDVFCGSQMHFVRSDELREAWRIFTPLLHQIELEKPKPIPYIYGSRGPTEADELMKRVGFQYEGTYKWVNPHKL
T1 sequence (Q4E0B2 entry or part of it): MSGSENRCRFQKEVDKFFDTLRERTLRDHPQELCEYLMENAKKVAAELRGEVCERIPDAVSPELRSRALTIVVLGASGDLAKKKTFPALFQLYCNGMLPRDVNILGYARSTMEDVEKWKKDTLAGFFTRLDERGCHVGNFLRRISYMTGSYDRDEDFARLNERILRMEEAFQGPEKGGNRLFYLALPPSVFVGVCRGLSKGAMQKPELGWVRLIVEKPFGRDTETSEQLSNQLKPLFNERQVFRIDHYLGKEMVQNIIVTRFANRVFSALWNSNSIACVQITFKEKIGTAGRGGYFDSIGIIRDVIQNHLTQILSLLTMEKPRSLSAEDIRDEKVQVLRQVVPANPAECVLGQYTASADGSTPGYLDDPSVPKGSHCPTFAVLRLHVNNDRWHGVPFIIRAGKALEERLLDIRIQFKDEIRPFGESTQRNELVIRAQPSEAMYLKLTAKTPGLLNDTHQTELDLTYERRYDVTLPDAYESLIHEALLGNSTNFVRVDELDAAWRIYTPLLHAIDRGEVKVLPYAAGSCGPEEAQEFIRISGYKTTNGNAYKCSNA

## C[C@]12CC[C@H](O)C[C@@H]1CC[C@@H]1[C@@H]2CC[C@]2(C)C(=O)[C@H](Br)C[C@@H]12 [Compound 1, 16α-bromo-epiandrosterone]
[1]
  CC50 at 24 h: 8.8 ± 1 µM
[2]; Trypanosoma brucei, 24 h
  EC50: 1.9 ± 0.2 µM
[3]
  % Cytotoxicity (50 µM) T. Cruzi Epimastigote Form: 14.5 ± 5.3%
[3]; Trypanosoma cruzi
  cytotoxicity at 50 µM: 15%

## CC(=O)O[C@H]1CC[C@@]2(C)[C@@H](CC[C@@H]3[C@@H]2CC[C@]2(C)C(=O)[C@H](Br)C[C@@H]32)C1 [Compound 2]
[1]
  CC50 at 24 h: 42 ± 1 µM
T. cruzi G6PDH [4]
  IC50: 0.11 ± 0.02 µM
[2]; Trypanosoma brucei, 24 h
  EC50: 5.3 ± 0.4 µM
[3]; Trypanosoma cruzi
  cytotoxicity at 50 µM: 64 ± 4.1%
Human G6PDH [5]
  IC50: > 100 µM
  inhibition at 100 µM: 0%

## CC(=O)O[C@H]1CC[C@@]2(C)[C@@H](CC[C@@H]3[C@@H]2CC[C@]2(C)C(=O)[C@@H](Br)C[C@@H]32)C1 [Compound 3]
[1]
  CC50 at 24 h: 0.96 µM
[6]
  CC50: 1 ± 0.1 µM
T. cruzi G6PDH [4]
  IC50: 1.5 ± 0.2 µM
[2]; Trypanosoma brucei, 24 h
  EC50: 4.8 ± 0.5 µM
[3]
  % Cytotoxicity (50 µM) T. Cruzi Epimastigote Form: 73.9 ± 3.4%
[3]; Trypanosoma cruzi
  cytotoxicity at 50 µM: 74%
Human G6PDH [5]
  IC50: > 100 µM
  inhibition of human G6PDH at highest concentration: inactive

## C[C@]12CC[C@H](O)CC1=CC[C@@H]1[C@@H]2CC[C@]2(C)C(=O)[C@H](Br)C[C@@H]12 [Compound 4]
[1]
  CC50 at 24 h: 19 ± 3 µM
[2]; Trypanosoma brucei, 24 h
  EC50: 7.5 ± 0.3 µM
[3]; Trypanosoma cruzi
  cytotoxicity at 50 µM: 6.4 ± 1.6%
Human G6PDH [5]; [13]
  IC50: 48 ± 2.6 µM

## CC(=O)O[C@H]1CC[C@@]2(C)C(=CC[C@@H]3[C@@H]2CC[C@]2(C)C(=O)[C@H](Br)C[C@@H]32)C1 [Compound 5]
[1]
  CC50 at 24 h: 39 ± 3 µM
T. cruzi G6PDH [4]
  IC50: 0.079 ± 0.01 µM
[2]; Trypanosoma brucei, 24 h
  EC50: 18 ± 3 µM
[3]; Trypanosoma cruzi
  cytotoxicity at 50 µM: 30.9 ± 2.5%
Human G6PDH [5]
  IC50: > 100 µM
  inhibition at 100 µM: 0%

## CC(=O)O[C@H]1CC[C@@]2(C)C(=CC[C@@H]3[C@@H]2CC[C@]2(C)C(=O)[C@@H](Br)C[C@@H]32)C1 [Compound 6]
[1]
  CC50 at 24 h: 4.5 ± 0.4 µM
T. cruzi G6PDH [4]
  IC50: > 50 µM
[2]; Trypanosoma brucei, 24 h
  EC50: 5.3 ± 0.5 µM
[3]
  % Cytotoxicity (50 µM) T. Cruzi Epimastigote Form: 76.2 ± 0.8%
[3]; Trypanosoma cruzi
  cytotoxicity at 50 µM: 76%
Human G6PDH [5]
  IC50: > 100 µM
  inhibition of human G6PDH at highest concentration: inactive

## C[C@]12CC[C@H](O)CC1=CC[C@@H]1[C@@H]2CC[C@]2(C)C(=O)C(O)C[C@@H]12 (stereo partly shown) [Compound 7]
Human G6PDH [7]
  IC50: 15.8 ± 3.3 µM
[1]
  CC50 at 24 h: > 24 µM
[2]
  EC50: > 24 µM
[2]; Trypanosoma brucei, 24 h
  EC50: 24 to 44 µM
[3]; Trypanosoma cruzi
  cytotoxicity at 50 µM: 3.9 ± 0.7%

## C[C@H]1[C@H]2CC[C@H]3[C@@H]4CC=C5C[C@@H](N(C)C)CC[C@]5(C)[C@H]4CC[C@]23CN1C [Conessine, reference compound]
[8]; footnote e
  EC50: 0.42 ± 0.01 µM
[9]
  CC50: 61.2 µM
T. cruzi G6PDH [4]; 100 µM
  inhibition of T. cruzi G6PDH at highest concentration: did not inhibit
T. cruzi G6PDH [4]; recombinant TcG6PDH, 700 µM NADP+, 6 mM G6P, RT, read-out: IC50 T. cruzi G6PDH
  IC50: > 100 µM
[2]
  Selectivity Index (CC50 for murine macrophages/EC50 for T. brucei): 145.7
Human G6PDH [5]
  inhibition of human G6PDH at highest concentration: did not inhibit
Human G6PDH [5]; [13]
  IC50: > 100 µM
[10]
  induction of oxidative stress in bloodstream trypanosomes: did not induce oxidative stress

## C[C@]12CC[C@H](O)CC1=CC[C@@H]1[C@@H]2CC[C@]2(C)C(=O)CC[C@@H]12 [DHEA, dehydroepiandrosterone]
[8]; footnote c
  EC50: 43.8 ± 2 µM
Human G6PDH [7]
  IC50: ~10 µM
L. mexicana G6PDH
  inhibition of L. mexicana G6PDH: refractory
Hek293T
  CC50: 25 ± 13 µM
T. cruzi G6PDH [11]; TcG6PDH
  IC50: 21.5 ± 0.5 µM

## C[C@]12CC[C@H](O)C[C@@H]1CC[C@@H]1[C@@H]2CC[C@]2(C)C(=O)CC[C@@H]12 [EA, Epiandrosterone]
[8]; footnote c
  EC50: 36.5 ± 3.6 µM
Human G6PDH [7]
  IC50: ~10 µM
L. mexicana G6PDH
  inhibition of L. mexicana G6PDH: refractory
[12]; 25 μM EA
  G6PDH specific activity in cell extracts: 0.12 U/mg
[12]; 100 μM EA
  G6PDH specific activity in cell extracts: 0.09 U/mg
T. cruzi G6PDH [11]; recombinant TcG6PDH
  IC50: 3 ± 0.4 µM

## CC1CS(=O)(=O)CCN1/N=C/c1ccc([N+](=O)[O-])o1 (stereo not shown) [Nifurtimox, reference compound]
[1]
  CC50 at 24 h: 140 ± 2 µM
[2]
  Selectivity Index (CC50 for murine macrophages/EC50 for T. brucei): 23.3
[2]; Trypanosoma brucei, 24 h
  EC50: 6 ± 0.4 µM
[3]; Trypanosoma cruzi, read-out: % Cytotoxicity T. Cruzi Epimastigote Form, at 24 µM, 72 h
  cytotoxicity at 24 µM: 46 ± 1.9%

## CN(C)C(=O)/N=N/C(=O)N(C)C [diamide]
[10]; 250 µM, 20 min
  biosensor oxidation: 54%
